How the values were obtained:
Format in all cases: binding
[1] = biological target: T1, kinases (KINOMEscan panel) (Homo sapiens, UniProt Q9UPZ9); conditions: CILK1; NEW KINOMEscan
T1 sequence (Q9UPZ9 1-632): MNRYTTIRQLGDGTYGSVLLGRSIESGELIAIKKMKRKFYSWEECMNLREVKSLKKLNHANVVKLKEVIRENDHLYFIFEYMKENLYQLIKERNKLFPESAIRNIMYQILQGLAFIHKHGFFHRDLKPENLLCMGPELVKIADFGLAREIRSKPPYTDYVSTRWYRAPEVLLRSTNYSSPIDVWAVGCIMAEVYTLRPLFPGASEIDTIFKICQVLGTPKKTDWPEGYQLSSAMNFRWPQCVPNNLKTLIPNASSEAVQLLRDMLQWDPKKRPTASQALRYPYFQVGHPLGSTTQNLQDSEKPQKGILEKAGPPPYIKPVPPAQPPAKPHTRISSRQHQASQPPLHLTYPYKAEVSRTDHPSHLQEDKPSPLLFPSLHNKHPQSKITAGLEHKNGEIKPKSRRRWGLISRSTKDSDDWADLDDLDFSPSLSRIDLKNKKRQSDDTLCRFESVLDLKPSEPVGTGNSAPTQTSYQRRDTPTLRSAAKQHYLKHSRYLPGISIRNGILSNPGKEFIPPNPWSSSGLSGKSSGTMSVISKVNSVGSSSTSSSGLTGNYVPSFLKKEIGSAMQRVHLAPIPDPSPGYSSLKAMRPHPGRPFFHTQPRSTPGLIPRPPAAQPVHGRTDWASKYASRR

[2] = biological target: kinases (KINOMEscan panel) (Homo sapiens, UniProt P36888, N841I); conditions: FLT3(N841I); NEW KINOMEscan
[3] = biological target: kinases (KINOMEscan panel) (Homo sapiens, UniProt Q9H4A3); conditions: NEW KINOMEscan
Sequence of kinases (KINOMEscan panel) (Homo sapiens, UniProt Q9H4A3) (Q9H4A3 whole entry): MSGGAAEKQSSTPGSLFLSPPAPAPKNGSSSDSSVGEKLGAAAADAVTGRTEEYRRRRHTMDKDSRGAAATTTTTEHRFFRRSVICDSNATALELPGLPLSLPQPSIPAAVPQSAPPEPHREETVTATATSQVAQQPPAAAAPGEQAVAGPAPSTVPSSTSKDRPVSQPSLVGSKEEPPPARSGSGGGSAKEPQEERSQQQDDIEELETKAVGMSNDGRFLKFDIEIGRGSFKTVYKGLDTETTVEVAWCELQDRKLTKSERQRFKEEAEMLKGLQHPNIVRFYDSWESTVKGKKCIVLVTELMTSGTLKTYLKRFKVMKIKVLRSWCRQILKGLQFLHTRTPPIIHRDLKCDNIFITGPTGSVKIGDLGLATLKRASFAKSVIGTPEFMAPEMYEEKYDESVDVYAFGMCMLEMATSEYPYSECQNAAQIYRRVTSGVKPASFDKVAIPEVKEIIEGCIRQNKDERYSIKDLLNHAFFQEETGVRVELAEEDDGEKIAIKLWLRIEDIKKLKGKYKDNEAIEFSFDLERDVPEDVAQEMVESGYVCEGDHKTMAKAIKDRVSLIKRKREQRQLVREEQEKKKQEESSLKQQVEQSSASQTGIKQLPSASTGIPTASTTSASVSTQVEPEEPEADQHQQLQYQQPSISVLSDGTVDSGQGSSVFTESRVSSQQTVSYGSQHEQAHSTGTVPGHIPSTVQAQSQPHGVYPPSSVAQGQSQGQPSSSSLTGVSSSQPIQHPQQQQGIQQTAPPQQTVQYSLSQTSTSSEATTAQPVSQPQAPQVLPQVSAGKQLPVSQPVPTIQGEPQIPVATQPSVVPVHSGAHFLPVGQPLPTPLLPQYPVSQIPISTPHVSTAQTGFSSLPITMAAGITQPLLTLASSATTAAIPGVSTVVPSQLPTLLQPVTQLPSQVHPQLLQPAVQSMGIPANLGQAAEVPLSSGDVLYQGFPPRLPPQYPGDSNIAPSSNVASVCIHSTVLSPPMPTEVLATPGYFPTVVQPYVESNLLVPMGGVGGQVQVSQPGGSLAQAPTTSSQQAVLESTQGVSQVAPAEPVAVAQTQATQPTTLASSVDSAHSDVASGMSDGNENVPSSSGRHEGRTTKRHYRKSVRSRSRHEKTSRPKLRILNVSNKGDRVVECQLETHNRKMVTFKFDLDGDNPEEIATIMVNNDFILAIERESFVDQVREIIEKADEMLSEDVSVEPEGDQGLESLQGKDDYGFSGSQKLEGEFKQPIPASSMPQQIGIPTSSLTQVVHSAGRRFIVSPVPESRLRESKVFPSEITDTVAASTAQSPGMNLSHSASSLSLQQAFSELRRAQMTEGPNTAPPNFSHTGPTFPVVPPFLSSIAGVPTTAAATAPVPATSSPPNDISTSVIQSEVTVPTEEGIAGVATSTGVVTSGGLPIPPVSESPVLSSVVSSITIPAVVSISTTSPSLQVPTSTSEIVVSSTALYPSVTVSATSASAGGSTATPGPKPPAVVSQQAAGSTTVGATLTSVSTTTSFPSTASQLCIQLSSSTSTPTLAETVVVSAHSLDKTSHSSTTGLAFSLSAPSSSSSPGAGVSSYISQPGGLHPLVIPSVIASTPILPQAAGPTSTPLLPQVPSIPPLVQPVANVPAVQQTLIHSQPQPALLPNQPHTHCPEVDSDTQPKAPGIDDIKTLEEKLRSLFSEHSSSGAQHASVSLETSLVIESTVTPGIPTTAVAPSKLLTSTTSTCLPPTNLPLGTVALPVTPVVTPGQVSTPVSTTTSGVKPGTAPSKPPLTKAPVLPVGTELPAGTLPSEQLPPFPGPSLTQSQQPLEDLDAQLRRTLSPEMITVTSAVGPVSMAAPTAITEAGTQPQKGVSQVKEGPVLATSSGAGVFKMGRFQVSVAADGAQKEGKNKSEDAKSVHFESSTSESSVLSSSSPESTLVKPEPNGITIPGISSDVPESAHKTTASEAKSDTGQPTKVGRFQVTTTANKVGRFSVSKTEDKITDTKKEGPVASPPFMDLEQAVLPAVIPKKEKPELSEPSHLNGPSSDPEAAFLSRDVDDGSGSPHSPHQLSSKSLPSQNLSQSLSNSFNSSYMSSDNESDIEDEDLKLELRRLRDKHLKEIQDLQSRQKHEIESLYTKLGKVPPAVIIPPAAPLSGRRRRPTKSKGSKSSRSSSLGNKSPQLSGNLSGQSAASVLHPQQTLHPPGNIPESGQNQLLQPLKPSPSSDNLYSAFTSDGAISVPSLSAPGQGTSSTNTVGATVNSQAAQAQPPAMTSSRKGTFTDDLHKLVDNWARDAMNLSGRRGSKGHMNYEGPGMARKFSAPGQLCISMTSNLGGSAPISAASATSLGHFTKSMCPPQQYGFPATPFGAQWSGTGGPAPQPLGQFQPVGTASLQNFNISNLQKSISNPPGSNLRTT

[4] = biological target: kinases (KINOMEscan panel) (Homo sapiens, UniProt Q00535); conditions: NEW KINOMEscan
Sequence of kinases (KINOMEscan panel) (Homo sapiens, UniProt Q00535) (Q00535 whole entry): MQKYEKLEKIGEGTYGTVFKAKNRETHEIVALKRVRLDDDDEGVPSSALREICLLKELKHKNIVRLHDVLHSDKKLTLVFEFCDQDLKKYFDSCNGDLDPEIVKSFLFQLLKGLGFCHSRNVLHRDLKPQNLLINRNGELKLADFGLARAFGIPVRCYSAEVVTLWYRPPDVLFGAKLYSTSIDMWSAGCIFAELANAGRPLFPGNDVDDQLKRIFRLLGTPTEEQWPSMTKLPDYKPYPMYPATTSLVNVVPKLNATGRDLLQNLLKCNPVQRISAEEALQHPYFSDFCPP

[5] = biological target: T2, kinases (KINOMEscan panel) (Homo sapiens, UniProt P21709); conditions: EPHA1; NEW KINOMEscan
T2 sequence (P21709 26-976): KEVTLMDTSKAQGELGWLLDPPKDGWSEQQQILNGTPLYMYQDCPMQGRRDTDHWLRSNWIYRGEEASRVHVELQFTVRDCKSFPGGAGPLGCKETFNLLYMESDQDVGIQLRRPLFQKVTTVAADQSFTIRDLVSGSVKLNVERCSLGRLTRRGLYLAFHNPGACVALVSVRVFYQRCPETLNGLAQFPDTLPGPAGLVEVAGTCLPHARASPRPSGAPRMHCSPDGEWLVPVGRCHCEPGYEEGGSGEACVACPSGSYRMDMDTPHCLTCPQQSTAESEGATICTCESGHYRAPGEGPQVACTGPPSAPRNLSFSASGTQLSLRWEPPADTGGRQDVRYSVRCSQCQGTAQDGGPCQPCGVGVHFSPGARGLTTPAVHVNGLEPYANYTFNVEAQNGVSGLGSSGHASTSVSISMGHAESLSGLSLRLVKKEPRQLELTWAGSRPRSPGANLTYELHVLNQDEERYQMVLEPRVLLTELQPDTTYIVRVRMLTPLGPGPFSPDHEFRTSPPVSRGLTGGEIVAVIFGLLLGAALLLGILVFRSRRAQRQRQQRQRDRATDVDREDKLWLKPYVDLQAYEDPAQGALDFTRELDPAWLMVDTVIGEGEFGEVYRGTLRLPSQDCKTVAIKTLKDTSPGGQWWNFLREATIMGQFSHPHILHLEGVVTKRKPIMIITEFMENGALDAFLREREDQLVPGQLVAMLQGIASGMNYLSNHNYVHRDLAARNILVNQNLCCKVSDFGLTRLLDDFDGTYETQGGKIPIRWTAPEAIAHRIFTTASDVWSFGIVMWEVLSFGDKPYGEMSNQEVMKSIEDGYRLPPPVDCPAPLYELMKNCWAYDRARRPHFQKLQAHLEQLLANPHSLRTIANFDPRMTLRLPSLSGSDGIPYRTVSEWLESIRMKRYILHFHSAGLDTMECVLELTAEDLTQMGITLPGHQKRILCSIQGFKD

[6] = biological target: T3, kinases (KINOMEscan panel) (Homo sapiens, UniProt Q9Y2U5); conditions: MAP3K2; NEW KINOMEscan
T3 sequence (Q9Y2U5 1-619): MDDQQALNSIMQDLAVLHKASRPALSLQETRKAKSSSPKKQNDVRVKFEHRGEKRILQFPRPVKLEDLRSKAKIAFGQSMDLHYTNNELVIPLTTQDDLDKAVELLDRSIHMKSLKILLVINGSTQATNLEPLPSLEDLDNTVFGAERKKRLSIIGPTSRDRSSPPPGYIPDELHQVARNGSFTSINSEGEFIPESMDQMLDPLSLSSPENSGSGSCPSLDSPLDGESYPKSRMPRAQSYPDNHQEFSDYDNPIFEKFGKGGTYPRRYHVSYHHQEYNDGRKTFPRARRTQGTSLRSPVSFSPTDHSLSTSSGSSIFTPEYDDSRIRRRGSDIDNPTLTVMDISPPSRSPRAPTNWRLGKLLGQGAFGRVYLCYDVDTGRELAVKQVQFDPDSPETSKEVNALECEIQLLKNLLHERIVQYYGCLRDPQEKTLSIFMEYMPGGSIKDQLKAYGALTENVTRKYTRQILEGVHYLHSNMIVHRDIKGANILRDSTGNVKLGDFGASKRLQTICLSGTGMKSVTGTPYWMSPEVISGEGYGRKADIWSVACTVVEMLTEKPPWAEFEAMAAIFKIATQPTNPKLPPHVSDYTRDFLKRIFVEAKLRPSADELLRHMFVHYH

[7] = biological target: T4, kinases (KINOMEscan panel) (Homo sapiens, UniProt Q99640); conditions: kinase PKMYT1; NEW KINOMEscan
T4 sequence (Q99640 1-499): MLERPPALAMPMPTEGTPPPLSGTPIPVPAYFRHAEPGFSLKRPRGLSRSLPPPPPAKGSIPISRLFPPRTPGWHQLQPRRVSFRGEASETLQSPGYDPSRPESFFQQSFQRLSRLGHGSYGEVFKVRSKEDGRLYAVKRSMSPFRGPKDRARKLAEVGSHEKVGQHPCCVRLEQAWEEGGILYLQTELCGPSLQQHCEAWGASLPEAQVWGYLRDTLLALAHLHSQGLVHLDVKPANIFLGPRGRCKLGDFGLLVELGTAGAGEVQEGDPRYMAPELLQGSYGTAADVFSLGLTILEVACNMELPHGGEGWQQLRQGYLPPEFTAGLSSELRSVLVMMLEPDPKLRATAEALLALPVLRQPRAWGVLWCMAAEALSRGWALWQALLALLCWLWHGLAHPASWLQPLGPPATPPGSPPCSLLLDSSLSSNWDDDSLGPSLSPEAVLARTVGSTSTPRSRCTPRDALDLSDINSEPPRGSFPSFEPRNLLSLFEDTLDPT

Row | SMILES | KINOMEscan CILK1 [1] | KINOMEscan FLT3(N841I) [2] | KINOMEscan WNK1 [3] | KINOMEscan CDK5 [4] | KINOMEscan EPHA1 [5] | KINOMEscan MAP3K2 [6] | KINOMEscan PKMYT1 [7]
1 | Cc1cccc(-c2nc(Nc3ccc4nn(C)cc4c3)c3ccccc3n2)n1 [NK167] | 0 | 3 | 0 | 14 | 1 | 0 | 0
2 | Cc1cccc(-c2nc(N(C)c3ccc4ncsc4c3)c3ccccc3n2)n1 [NK-161] | 0 | 0 | 9 | 19 | 0 | 0 | 0

From publication PMC9851200, “Multiparameter phenotypic screening for endogenous TFEB and TFE3 translocation identifies novel chemical series modulating lysosome function” (Autophagy, 2022)
